ChEMBL document CHEMBL1201862, “PubChem BioAssay data set” (2004)
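Interpolation was linear, between the two tested concentrations surrounding the appropriate level; five concentrations were tested over 48 hours in 96-well plates. GI50: concentration for 50% inhibition of growth.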 Calls of active or inactive are those of the source. Rule as the data show it: active = GI50 up to about 1.1 µM and inactive = higher.

Columns and labels:
Experiment in all cases: NCI-60 cell line screen, 48 h
EKVX = tested on: EKVX
MDA-MB-435 = tested on: MDA-MB-435
A549 = tested on: A549
COLO 205 = tested on: COLO 205
KM12 = tested on: KM12
OVCAR-3 = tested on: OVCAR-3
SK-OV-3 = tested on: SK-OV-3
UACC-62 = tested on: UACC-62
SNB-75 = tested on: SNB-75
MCF7 = tested on: MCF7
HOP-62 = tested on: HOP-62
NCI-H522 = tested on: NCI-H522
MDA-MB-231 = tested on: MDA-MB-231
RPMI-8226 = tested on: RPMI-8226
NCI-H23 = tested on: NCI-H23
CAKI-1 = tested on: CAKI-1
PC-3 = tested on: PC-3
SK-MEL-5 = tested on: SK-MEL-5
BT-549 = tested on: BT-549
Malme-3M = tested on: Malme-3M

| SMILES | GI50 (EKVX) | GI50 (MDA-MB-435) | GI50 (A549) | GI50 (COLO 205) | GI50 (KM12) | GI50 (OVCAR-3) | GI50 (SK-OV-3) | GI50 (UACC-62) | GI50 (SNB-75) | GI50 (MCF7) | GI50 (HOP-62) | GI50 (NCI-H522) | GI50 (MDA-MB-231) | GI50 (RPMI-8226) | GI50 (NCI-H23) | GI50 (CAKI-1) | GI50 (PC-3) | GI50 (SK-MEL-5) | GI50 (BT-549) | GI50 (Malme-3M) |
| --- | --- | --- | --- | --- | --- | --- | --- | --- | --- | --- | --- | --- | --- | --- | --- | --- | --- | --- | --- | --- |
| O=c1oc2ccccc2cc1-c1cc2ccccn2c1 | > 100 µM (inactive) | > 100 µM (inactive) | > 100 µM (inactive) | > 100 µM (inactive) | > 100 µM (inactive) | > 100 µM (inactive) | > 100 µM (inactive) | > 100 µM (inactive) | > 100 µM (inactive) | 0.5 µM (active) | > 100 µM (inactive) | > 100 µM (inactive) | > 100 µM (inactive) | > 100 µM (inactive) | > 100 µM (inactive) | > 100 µM (inactive) | > 100 µM (inactive) | > 100 µM (inactive) | > 100 µM (inactive) | – |
| CC(C)(C)C1CCC2(CC1)CCN(CCCN1CCOCC1)CC2 | > 96.4 µM (inactive) | 28.2 µM (inactive) | > 49.9 µM (inactive) | 16.3 µM (inactive) | > 56 µM (inactive) | > 100 µM (inactive) | > 100 µM (inactive) | 8.91 µM (inactive) | 24.8 µM (inactive) | > 100 µM (inactive) | > 41.5 µM (inactive) | > 51.1 µM (inactive) | > 100 µM (inactive) | 17.5 µM (inactive) | 52.1 µM (inactive) | > 34.7 µM (inactive) | > 100 µM (inactive) | 8.05 µM (inactive) | > 100 µM (inactive) | 18.5 µM (inactive) |
| Cc1cc2c(O)c(c1)COCc1cc(C)cc(c1O)COCc1cc(C)cc(c1O)COC2 | > 100 µM (inactive) | > 100 µM (inactive) | > 100 µM (inactive) | 96.2 µM (inactive) | > 100 µM (inactive) | > 100 µM (inactive) | > 100 µM (inactive) | > 100 µM (inactive) | 80.5 µM (inactive) | > 100 µM (inactive) | > 100 µM (inactive) | 49.2 µM (inactive) | 72.8 µM (inactive) | > 100 µM (inactive) | > 100 µM (inactive) | > 100 µM (inactive) | > 100 µM (inactive) | – | > 100 µM (inactive) | > 100 µM (inactive) |
| O=C(O)CSCC(=O)Nc1ccc2cccc3c2c1CC3 | > 100 µM (inactive) | > 100 µM (inactive) | > 100 µM (inactive) | > 100 µM (inactive) | > 100 µM (inactive) | > 100 µM (inactive) | – | > 100 µM (inactive) | > 100 µM (inactive) | 97.1 µM (inactive) | > 100 µM (inactive) | > 100 µM (inactive) | > 100 µM (inactive) | > 100 µM (inactive) | > 100 µM (inactive) | > 100 µM (inactive) | > 100 µM (inactive) | > 100 µM (inactive) | > 100 µM (inactive) | > 100 µM (inactive) |
| Cn1c(CO)ccc1-c1ccc(-c2ccc[se]2)[se]1 | 35.1 µM (inactive) | 12.6 µM (inactive) | 17.1 µM (inactive) | 3.46 µM (inactive) | 19.8 µM (inactive) | – | 13.6 µM (inactive) | – | 12.8 µM (inactive) | 0.119 µM (active) | 20.7 µM (inactive) | 61.9 µM (inactive) | 23.6 µM (inactive) | 20.9 µM (inactive) | 20.5 µM (inactive) | < 0.01 µM (active) | > 90.4 µM (inactive) | 29.8 µM (inactive) | 21.8 µM (inactive) | > 72.1 µM (inactive) |
| C[C@H](CCc1nc(C#N)c(N)o1)[C@H]1CC[C@H]2[C@@H]3[C@@H](O)CC4C[C@@H](O)CC[C@]4(C)[C@H]3C[C@@H](O)[C@]12C (some centres undefined) | 28.3 µM (inactive) | 22 µM (inactive) | 29.4 µM (inactive) | 18.2 µM (inactive) | 17.7 µM (inactive) | 17.7 µM (inactive) | 37.5 µM (inactive) | 10.7 µM (inactive) | 10.3 µM (inactive) | 33.1 µM (inactive) | 26.5 µM (inactive) | 4.03 µM (inactive) | 25.6 µM (inactive) | 6.75 µM (inactive) | 24 µM (inactive) | 30.5 µM (inactive) | 9.95 µM (inactive) | 18.9 µM (inactive) | 9.86 µM (inactive) | 7.38 µM (inactive) |
| O=C(c1ccccc1)N1N=C(C(F)(F)F)CC1(O)C(F)(F)F (centres undefined) | > 100 µM (inactive) | > 100 µM (inactive) | > 100 µM (inactive) | > 100 µM (inactive) | > 100 µM (inactive) | > 100 µM (inactive) | – | – | > 100 µM (inactive) | > 100 µM (inactive) | > 100 µM (inactive) | > 100 µM (inactive) | > 100 µM (inactive) | > 100 µM (inactive) | > 100 µM (inactive) | – | > 100 µM (inactive) | – | > 100 µM (inactive) | > 100 µM (inactive) |
| O=C(c1ccc(Cl)c(Cl)c1)N(Cc1cccnc1)C(=S)N(Cc1cccnc1)C(=O)c1ccc(Cl)c(Cl)c1 | 40.6 µM (inactive) | 62.5 µM (inactive) | > 100 µM (inactive) | 15.6 µM (inactive) | 28.1 µM (inactive) | 25.5 µM (inactive) | > 100 µM (inactive) | 50.7 µM (inactive) | 38.4 µM (inactive) | 7.06 µM (inactive) | 27.4 µM (inactive) | 20.9 µM (inactive) | 33.1 µM (inactive) | 5.5 µM (inactive) | 37.8 µM (inactive) | 31.6 µM (inactive) | 22.1 µM (inactive) | 27.7 µM (inactive) | 22.9 µM (inactive) | 52.8 µM (inactive) |
| O=c1[nH]c2ccc(Cl)cc2o1 | 26.7 µM (inactive) | > 100 µM (inactive) | > 100 µM (inactive) | > 100 µM (inactive) | > 100 µM (inactive) | > 100 µM (inactive) | > 100 µM (inactive) | > 100 µM (inactive) | > 100 µM (inactive) | > 100 µM (inactive) | > 100 µM (inactive) | 96.4 µM (inactive) | > 100 µM (inactive) | > 100 µM (inactive) | > 100 µM (inactive) | > 100 µM (inactive) | > 100 µM (inactive) | > 100 µM (inactive) | > 100 µM (inactive) | > 100 µM (inactive) |
| C[C@H]1C=C2[C@@H]3CC(C)(C(=O)O)CC[C@]3(C)CC[C@]2(C)[C@]2(C)CC[C@H]3C(C)(C)[C@@H](OC(=O)c4cccc5c(=O)c6ccccc6[nH]c45)CC[C@]3(C)[C@@H]12 (some centres undefined) | > 100 µM (inactive) | 41.8 µM (inactive) | 57.5 µM (inactive) | 58.1 µM (inactive) | 37.2 µM (inactive) | > 100 µM (inactive) | > 100 µM (inactive) | 43.3 µM (inactive) | > 100 µM (inactive) | 40 µM (inactive) | > 100 µM (inactive) | 28.8 µM (inactive) | > 100 µM (inactive) | 43 µM (inactive) | 44.3 µM (inactive) | > 100 µM (inactive) | 38.2 µM (inactive) | 34.4 µM (inactive) | 47.8 µM (inactive) | 66.8 µM (inactive) |
| OC(CCN1CCN(CCOC(c2ccc(F)cc2)c2ccc(F)cc2)CC1)c1ccc(Br)cc1 (centres undefined) | 5.15 µM (inactive) | 2.27 µM (inactive) | 9.44 µM (inactive) | 1.85 µM (inactive) | 2.44 µM (inactive) | 3.34 µM (inactive) | 7.35 µM (inactive) | 4.06 µM (inactive) | 9.77 µM (inactive) | 3.37 µM (inactive) | 6.12 µM (inactive) | 5.74 µM (inactive) | 5.74 µM (inactive) | 2.67 µM (inactive) | 6.75 µM (inactive) | 2.02 µM (inactive) | 4.83 µM (inactive) | 1.69 µM (inactive) | 5.83 µM (inactive) | 2.12 µM (inactive) |
| CCn1sc2ccccc2c1=O | 17.1 µM (inactive) | 1.99 µM (inactive) | 16.1 µM (inactive) | 9.55 µM (inactive) | 6.89 µM (inactive) | 12.9 µM (inactive) | 36 µM (inactive) | 13.9 µM (inactive) | 13.7 µM (inactive) | 8.77 µM (inactive) | 14.7 µM (inactive) | 1.6 µM (inactive) | 9.57 µM (inactive) | 4.23 µM (inactive) | 13 µM (inactive) | 3.43 µM (inactive) | 14.3 µM (inactive) | 9.84 µM (inactive) | 11.1 µM (inactive) | 15.8 µM (inactive) |
| COC(=N)C12C(N)=NC(OC)(OC)C1(C#N)C21C(=O)N(c2ccccc2)N=C1C (centres undefined) | > 100 µM (inactive) | > 100 µM (inactive) | > 100 µM (inactive) | > 100 µM (inactive) | > 100 µM (inactive) | > 100 µM (inactive) | > 100 µM (inactive) | > 100 µM (inactive) | > 100 µM (inactive) | > 100 µM (inactive) | > 100 µM (inactive) | > 100 µM (inactive) | > 100 µM (inactive) | > 100 µM (inactive) | > 100 µM (inactive) | > 100 µM (inactive) | > 100 µM (inactive) | – | > 100 µM (inactive) | > 100 µM (inactive) |
| O=C(O)CCNC(=O)c1cc(N(CCBr)CCBr)c([N+](=O)[O-])cc1[N+](=O)[O-] | > 100 µM (inactive) | > 100 µM (inactive) | > 100 µM (inactive) | > 100 µM (inactive) | > 100 µM (inactive) | > 100 µM (inactive) | > 100 µM (inactive) | – | > 100 µM (inactive) | > 100 µM (inactive) | > 100 µM (inactive) | > 100 µM (inactive) | > 100 µM (inactive) | > 100 µM (inactive) | > 100 µM (inactive) | > 100 µM (inactive) | > 100 µM (inactive) | > 100 µM (inactive) | > 100 µM (inactive) | > 100 µM (inactive) |
